EC50, CC50 and IC50 data for twelve compounds are collected here from ChEMBL document CHEMBL1156415, “Selective inhibition of porcine endogenous retrovirus replication in human cells by acyclic nucleoside phosphonates” (Antimicrob Agents Chemother, 2007).

The test system of data set [1] is Porcine endogenous retrovirus. The data set is described as follows: Antiviral activity against PERV infected in human 293T cells assessed as inhibition of proximal DNA synthesis after 24 hrs by RT-PCR. It counts as functional, organism-based. To be noted: Porcine type-C oncovirus, HEK-293T.
Data set [2] in a line: Cytotoxicity against human 293T cells assessed as inhibition of cell proliferation by tetrazolium dye method. Type of data set: cell-based, HEK-293T.
Data set [3] can be described thus: Inhibition of PERV reverse transcriptase from pig PK15 cells. It counts as cell-based, Porcine endogenous retrovirus.
A short description of data set [4]: Inhibition of PERV reverse transcriptase from Kagoshima pig KK5 cells. Further details: species or system Porcine endogenous retrovirus.
A short description of data set [5]: Inhibition of PERV reverse transcriptase from Kagoshima pig DRK4 cells. On the set-up: species or system Porcine endogenous retrovirus.
Data set [6] deals with Human immunodeficiency virus type 1 reverse transcriptase (Human immunodeficiency virus 1, UniProt Q72547). The data set is described as follows: Inhibition of HIV1 recombinant reverse transcriptase.

What is called EC50 is the concentration giving half of the maximal effect. What is called CC50 is the concentration giving 50% cytotoxicity. The term IC50 denotes the concentration at which inhibition is half-maximal.

Bounds are passed on as bounds.

`Cc1cn([C@H]2C[C@H](O)[C@](CO)(N=[N+]=[N-])O2)c(=O)[nH]c1=O`: the concentration for a half-maximal effect (EC50) in data set [1] was more than 100000 nM. Moreover, in data set [2], the CC50 was more than 100000 nM.

Turning to `Nc1cc(OCCOCP(=O)(O)O)nc(N)n1`, the EC50 in data set [1] turned out to be 180 nM. Also, the CC50 in data set [2] was more than 100000 nM.

As to `C[C@H](Cn1cnc2c(N)nc(N)nc21)OCP(=O)(O)O`, the EC50 in data set [1] came to 280 nM. The CC50 in data set [2] is more than 100000 nM.

For the compound `Nc1ncnc2c1ncn2CCOCP(=O)(O)O` [ADEFOVIR], the EC50 in data set [1] stood at 3400 nM. In addition, the cytotoxic concentration (CC50) in data set [2] is more than 100000 nM.

As to `C#C[C@@]1(CO)C=C[C@H](n2cc(C)c(=O)[nH]c2=O)O1` [CENSAVUDINE], the half-maximal effective concentration (EC50) in data set [1] is more than 100000 nM. For the same compound, the CC50 in data set [2] is more than 100000 nM.

With `Nc1ccn([C@@H]2CS[C@H](CO)O2)c(=O)n1` [LAMIVUDINE], the EC50 in data set [1] was more than 100000 nM. For the same compound, in data set [2], the half-maximal cytotoxic concentration (CC50) is more than 100000 nM.

Consider `Cc1ccnc2c1NC(=O)c1cccnc1N2C1CC1` [NEVIRAPINE], for which the 50% effective concentration (EC50) in data set [1] was more than 100000 nM. Moreover, the CC50 in data set [2] was more than 100000 nM.

On to `Cc1cn([C@H]2C=C[C@@H](COP(=O)(O)OP(=O)(O)OP(=O)(O)O)O2)c(=O)[nH]c1=O` [STAVUDINE TRIPHOSPHATE], for which the IC50 in data set [3] came to 450 nM; in data set [4], 150 nM; in data set [5], 170 nM; in data set [6] it was 36 nM.

Take `Cc1cn([C@H]2C=C[C@@H](CO)O2)c(=O)[nH]c1=O` [STAVUDINE]: the half-maximal effective concentration (EC50) in data set [1] worked out at 7800 nM. Further, the CC50 in data set [2] was more than 100000 nM.

As for `C[C@H](Cn1cnc2c(N)ncnc21)OCP(=O)(O)O` [TENOFOVIR ANHYDROUS], the EC50 in data set [1] amounted to 2800 nM. For the same compound, the CC50 in data set [2] was more than 100000 nM.

Regarding `Cc1cn([C@H]2C[C@H](N=[N+]=[N-])[C@@H](COP(=O)(O)OP(=O)(O)OP(=O)(O)O)O2)c(=O)[nH]c1=O` [ZIDOVUDINE TRIPHOSPHATE], the IC50 in data set [3] amounted to 59 nM; in data set [4] it was 19 nM; in data set [5] it was 20 nM; in data set [6], 54 nM.

`Cc1cn([C@H]2C[C@H](N=[N+]=[N-])[C@@H](CO)O2)c(=O)[nH]c1=O` [ZIDOVUDINE]: the concentration giving a half-maximal response (EC50) in data set [1] was 23 nM. The half-maximal cytotoxic concentration (CC50) in data set [2] was more than 10000 nM.
